Measured values from patent US10314820B2, “Imidazole-based heterocyclic compounds” (priority 2014, dated 2019).

What was measured:
[1] = test system: Escherichia coli TolC mutant strain ΔtolC; assay type: cell-based; conditions: Table BB; MIC score
[2] = test system: Human keratinocytes (HaCaT cells); experiment: Human cytotoxicity assay in vitro (CellTiter-Glo), keratinocytes; assay type: cell-based; conditions: keratinocyte cytotoxicity score; 24 h exposure
[3] = test system: Human hepatocytes (HepaRG cells); experiment: Human cytotoxicity assay in vitro (CellTiter-Glo), hepatocytes; assay type: cell-based; conditions: hepatocyte cytotoxicity score; 24 h exposure
[4] = test system: linezolid-resistant Staphylococcus aureus (from MRSA, COL); experiment: microbe, parasite or virus in culture; assay type: cell-based; conditions: Table BB; MIC score; linezolid-resistant MRSA
[5] = test system: vancomycin-resistant Staphylococcus aureus (from MRSA, COL); experiment: microbe, parasite or virus in culture; assay type: cell-based; conditions: Table BB; MIC score; vancomycin-resistant MRSA
[6] = test system: Enterococcus faecium (AGR15, ATCCBAA-2127); experiment: Broth microdilution MIC assay, Enterococcus faecium; assay type: cell-based; conditions: Table BB; MIC score
[7] = test system: moenomycin-resistant Staphylococcus aureus (from MRSA, COL); conditions: Table BB, MIC score
[8] = test system: Staphylococcus aureus MRSA (COL); assay type: cell-based; conditions: Table AA; MIC score
[9] = test system: Staphylococcus aureus MSSA (Newman); experiment: Broth microdilution MIC assay, MSSA; assay type: cell-based; conditions: Table AA; MIC score
[10] = test system: Streptococcus pneumoniae (Chester, ATCC49619); experiment: Broth microdilution MIC assay, Streptococcus pneumoniae; assay type: cell-based; conditions: Table AA; MIC score
[11] = test system: platensimycin-resistant Staphylococcus aureus (from MRSA, COL); experiment: microbe, parasite or virus in culture; assay type: cell-based; conditions: read-out: MIC for the resistant strain
[12] = test system: MRSA (COL) resistant to triclosan; experiment: microbe, parasite or virus in culture; conditions: Staphylococcus aureus, read-out: MIC values of resistant strains

Row | SMILES | cytotoxicity cell line K [2] | cytotoxicity cell line H [3] | antibacterial activity MRSA strains with additional resistance to L [4] | antibacterial activity MRSA strains with additional resistance to V [5] | antibacterial activity EFm [6] | antibacterial activity MRSA strains with additional resistance to M [7] | also measured
1 | Cc1[nH]c(-c2ccc(-c3ccccc3F)s2)nc1-c1ccccc1 [Compound 15] | 1 (compounds causing less than 50% inhibition of cell viability at 50 μM) | 1 (compounds not causing a loss of viability at concentrations between 25 and 50 μM) | – | – | – | – | antibacterial activity EC Δ [1]: 1 (the compound has an MIC100 of 20-50 μg/ml or an MIC50 of <10 μg/ml)
2 | Cc1nc(-c2ccc(-c3ccccc3OC(F)(F)F)o2)[nH]c1-c1ccccc1Cl [Compound 19] | 0 (compounds not causing loss of cell viability at concentrations of 50 μM or higher) | 3 | 3 (the compound has an MIC100 of 3-10 μg/ml) | 1 (the compound has an MIC100 of 20-50 μg/ml or an MIC50 of <10 μg/ml) | – | – | –
3 | Cc1[nH]c(-c2ccc(-c3ccccc3OC(F)(F)F)o2)nc1-c1ccc(F)cc1 [Compound 23, 4-(4-Fluoro-phenyl)-5-methyl-2-[5-(2-trifluoromethoxy-phenyl)-furan-2-yl]-1H-imidazole] | 2 (compounds causing>50% inhibition of cell viability at 25 μM) | 3 | – | – | 1 (the compound has an MIC100 of 20-50 μg/ml or an MIC50 of <10 μg/ml) | – | –
4 | Cc1[nH]c(-c2ccc(-c3ccccc3OC(F)(F)F)o2)nc1-c1ccc(Cl)cc1 [Compound 24] | 2 (compounds causing>50% inhibition of cell viability at 25 μM) | 2 | 3 (the compound has an MIC100 of 3-10 μg/ml) | 4 (the compound has an MIC of 1 μg/ml to 3 μg/ml for preventing bacterial growth 100% (MIC100)) | – | 3 (the compound has an MIC100 of 3-10 μg/ml) | –
5 | Cc1[nH]c(-c2ccc(-c3ccc(Cl)c(C(F)(F)F)c3)o2)nc1-c1ccc(F)cc1 [Compound 42] | 3 (compounds causing more than 50% inhibition of cell viability at 10 μM) | 1 (compounds not causing a loss of viability at concentrations between 25 and 50 μM) | 4 (the compound has an MIC of 1 μg/ml to 3 μg/ml for preventing bacterial growth 100% (MIC100)) | 4 (the compound has an MIC of 1 μg/ml to 3 μg/ml for preventing bacterial growth 100% (MIC100)) | 1 (the compound has an MIC100 of 20-50 μg/ml or an MIC50 of <10 μg/ml) | 4 (the compound has an MIC of 1 μg/ml to 3 μg/ml for preventing bacterial growth 100% (MIC100)) | –
6 | Cc1nc(-c2ccc(-c3ccc(Cl)c(OC(F)(F)F)c3)o2)[nH]c1-c1ccc(Cl)cc1 [Compound 44] | – | 2 | – | – | 1 (the compound has an MIC100 of 20-50 μg/ml or an MIC50 of <10 μg/ml) | – | –
7 | Cc1[nH]c(-c2ccc(-c3ccc(C(F)(F)F)cc3)o2)nc1-c1ccc(Cl)cc1 [Compound 47] | 2 (compounds causing>50% inhibition of cell viability at 25 μM) | 1 (compounds not causing a loss of viability at concentrations between 25 and 50 μM) | – | – | 1 (the compound has an MIC100 of 20-50 μg/ml or an MIC50 of <10 μg/ml) | – | –
8 | Cc1[nH]c(-c2ccc(-c3ccc(C(F)(F)F)c(Cl)c3)o2)nc1-c1ccc(F)cc1 [Compound 49] | 2 (compounds causing>50% inhibition of cell viability at 25 μM) | 3 | 2 (the compound has an MIC100 of 11-20 μg/ml) | 3 (the compound has an MIC100 of 3-10 μg/ml) | 1 (the compound has an MIC100 of 20-50 μg/ml or an MIC50 of <10 μg/ml) | 3 (the compound has an MIC100 of 3-10 μg/ml) | –
9 | Cc1[nH]c(-c2ccc(-c3ccc(OC(F)(F)F)c(Cl)c3)o2)nc1-c1ccc(Cl)cc1 [Compound 50] | 1 (compounds causing less than 50% inhibition of cell viability at 50 μM) | 1 (compounds not causing a loss of viability at concentrations between 25 and 50 μM) | – | – | – | – | Antibacterial activity Staphylococcus aureus (MRSA) [8]: 2 (the compound has an MIC100 of 11-20 μg/ml); Antibacterial activity Staphylococcus aureus (MSSA) [9]: 3 (the compound has an MIC100 of 3-10 μg/ml); Antibacterial activity Streptococcus pneumoniae [10]: 3 (the compound has an MIC100 of 2-5 μg/ml)
10 | FC(F)(F)Oc1ccccc1-c1ccc(-c2nc(Cl)c(-c3ccccc3)[nH]2)o1 [Compound 64] | 3 (compounds causing more than 50% inhibition of cell viability at 10 μM) | 3 | – | 4 (the compound has an MIC of 1 μg/ml to 3 μg/ml for preventing bacterial growth 100% (MIC100)) | – | 4 (the compound has an MIC of 1 μg/ml to 3 μg/ml for preventing bacterial growth 100% (MIC100)) | –
11 | Cc1ccccc1-c1c[nH]c(-c2ccc(-c3ccccc3OC(F)(F)F)o2)n1 [Compound 66] | 1 (compounds causing less than 50% inhibition of cell viability at 50 μM) | 3 | 4 (the compound has an MIC of 1 μg/ml to 3 μg/ml for preventing bacterial growth 100% (MIC100)) | 3 (the compound has an MIC100 of 3-10 μg/ml) | – | 3 (the compound has an MIC100 of 3-10 μg/ml) | –
12 | Cc1ccccc1-c1cnc(-c2ccc(-c3ccccc3C(F)(F)F)o2)[nH]1 [Compound 69] | 1 (compounds causing less than 50% inhibition of cell viability at 50 μM) | 2 | – | – | – | – | antibacterial activity EC Δ [1]: 1 (the compound has an MIC100 of 20-50 μg/ml or an MIC50 of <10 μg/ml)
13 | CN(C)Cc1[nH]c(-c2ccc(-c3ccccc3C(F)(F)F)o2)nc1-c1ccccc1 [Compound 70] | 2 (compounds causing>50% inhibition of cell viability at 25 μM) | 3 | 1 (the compound has an MIC100 of 20-50 μg/ml or an MIC50 of <10 μg/ml) | 1 (the compound has an MIC100 of 20-50 μg/ml or an MIC50 of <10 μg/ml) | 2 (the compound has an MIC100 of 11-20 μg/ml) | 1 (the compound has an MIC100 of 20-50 μg/ml or an MIC50 of <10 μg/ml) | Antibacterial activity Staphylococcus aureus (MRSA) [8]: 1 (the compound has an MIC100 of 20-50 μg/ml or an MIC50 of <10 μg/ml); antibacterial activity EC Δ [1]: 3 (the compound has an MIC100 of 3-10 μg/ml); Antibacterial activity Staphylococcus aureus (MSSA) [9]: 1 (the compound has an MIC100 of 20-50 μg/ml or an MIC50 of <10 μg/ml); Antibacterial activity Streptococcus pneumoniae [10]: 3 (the compound has an MIC100 of 2-5 μg/ml)
14 | Fc1ccc(-c2ccc(-c3nc4ccccc4[nH]3)o2)cc1 [Compound 121] | – | – | – | – | – | – | Antibacterial activity Staphylococcus aureus (MRSA) [8]: inactive; Antibacterial activity Streptococcus pneumoniae [10]: inactive
15 | Fc1ccc(-c2ccc(-c3nc4ccccc4[nH]3)o2)c(F)c1 [Compound 122] | – | – | – | – | – | – | Antibacterial activity Staphylococcus aureus (MRSA) [8]: inactive; Antibacterial activity Streptococcus pneumoniae [10]: inactive
16 | CC12C[C@@]34C=CC(=O)[C@@](C)(CCC(=O)Nc5c(O)ccc(C(=O)O)c5O)C3[C@H](CC1C4)O2 (some centres unmarked) [platensimycin] | – | – | – | – | – | – | MIC [11]: > 10 µg/mL
17 | Oc1cc(Cl)ccc1Oc1ccc(Cl)cc1Cl [triclosan] | – | – | – | – | – | – | MIC [12]: > 20 µg/mL
